Data on 89 compounds can be found in PubChem BioAssay AID652047 (Broad Institute, 2013).

Assay [1] can be described thus: antimalarial activity against intraerythrocytic 3D7 parasites – 3D7 strain, red blood cells, SYBR Green, cherry-picked, dose response (AID 652047).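 On activity change, negative = inhibition: 0% = untreated neutral control wells and -100% = mefloquine positive control wells.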 The note with it: P. falciparum 3D7 in RBCs, SYBR Green DNA fluorescence.
Assay [2] deals with P. falciparum 3D7 in RBCs, SYBR Green DNA fluorescence. Described as above.

Active and inactive are the calls of the source.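 How the source made its calls: active means fitted curve reaches activity change of -35% signal drop at a concentration below twice the top valid tested dose; inactive means the rest, including activity in the opposite direction.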

As for `Clc1ccc(-c2n[nH]c3c2CCC3)cc1Cl`, the activity change, negative = inhibition in assay [1] (at 50 µM (top of the series)) is 19.2% (inactive). As to `CCn1c(CNc2ccc(Cl)cc2)nnc1SCc1ccccc1`, in assay [1] (at 50 µM (top of the series)), the activity change, negative = inhibition is -1.95% (inactive). In the case of `CCCCn1c(=O)c(C(=O)NCc2ccncc2)c(O)c2ccccc21`, the activity change, negative = inhibition in assay [1] (at 50 µM (top of the series)) is 2.98% (inactive). Still for that read-out and setting: to `CCCC1CCC(c2ccc(/C(N)=N/O)cc2)CC1` (centres undefined) belongs -10.1% (inactive); to `COc1ccc(N(C(=O)c2ccncc2)S(=O)(=O)c2ccccc2)cc1`, -18.5% (inactive).

With `COc1ccccc1C1CCN(C(=O)c2ccc(Cl)cc2)CC1`, in assay [1] (at 50 µM (top of the series)), the activity change, negative = inhibition is -15.2% (inactive).

For the compound `O=C1N(c2ccc(Cl)cc2)C(c2cccnc2)N2CCCN12` (centres undefined), the activity change, negative = inhibition in assay [1] (at 50 µM (top of the series)) is -3.96% (inactive). The same measure, in the same setting: the value for `O=C(O)c1c(NC(=O)N2CCCC2)sc2c1CCCC2` was -4.69% (inactive); that for `CCCCC(CC)c1nnc(NC(=O)c2cccs2)s1` (centres undefined) was -12.7% (inactive); that for `O=C(N/N=C/c1cc(Cl)cc([N+](=O)[O-])c1O)c1ccccc1NS(=O)(=O)c1cccs1` was 3.85% (inactive). On the same count and under the same terms, to `c1ccc(-c2ccc(OCCCn3cncn3)cc2)cc1` belongs 6.71% (inactive); to `CC1(C)CC(=O)C(N=Nc2ccc3ncsc3c2)=C(O)C1`, -15.1% (inactive); to `COc1cccc(CC(=O)Nc2ccc3nc(C)sc3c2)c1`, -2.47% (inactive).

`CCCn1c2ccccc2c2cc(C(=O)O)ccc21`: the activity change, negative = inhibition in assay [1] (at 50 µM (top of the series)) is 17.1% (inactive). Still for that read-out and setting: the value for `O=C(c1ccccc1)c1ccc(Cn2cc(-c3ccccc3)nn2)cc1` was -9.93% (inactive); that for `O=C1Nc2c(Br)cccc2C1=O` was -4.37% (inactive); that for `O=C(c1ccccc1)N1C(=O)C(c2ccccc2)Oc2ccccc21` (centres undefined) was -36.8% (inactive). On the same count and under the same terms, the value for `CC12CCC(O)CC1=CCC1C2CCC2(C)C3=NN=CC3CC12` (centres undefined) was -27.5% (inactive); that for `COc1ccc(N(C)S(=O)(=O)c2ccc(Cl)c(C(=O)NNC(=O)c3ccccc3O)c2)cc1` was -2.22% (inactive); that for `CCCn1c(=O)c(C(=O)NCc2ccc(OC)c(OC)c2)c(O)c2ccccc21` was -23.6% (inactive).

For `CCn1c(CNc2ccc(Cl)cc2)nnc1SCc1ccc(Cl)cc1`, the activity change, negative = inhibition in assay [1] (at 50 µM (top of the series)) is -49.2% (inactive).

For `CCCCc1ccc(-n2c(Cc3cccs3)n[nH]c2=S)cc1`, the activity change, negative = inhibition in assay [1] (at 50 µM (top of the series)) is -28% (inactive).

Consider `COc1cc2c(c(OC)c1OC)-c1ccc(O)c(=O)cc1[C@@H](NC(C)=O)CC2`, for which the activity change, negative = inhibition in assay [1] (at 50 µM (top of the series)) is -10.9% (inactive). In the case of `Cc1nc2ccc(C(=O)NCc3ccc4c(c3)OCO4)cc2s1`, in assay [1] (at 50 µM (top of the series)), the activity change, negative = inhibition is 1.05% (inactive). Still for that read-out and setting: to `CC1CCN(c2ccc3c(c2)S(=O)(=O)c2ccccc2C3=O)CC1` belongs -3.18% (inactive). Same read-out and setting: to `CCc1ccc(S(=O)(=O)N(C(=O)c2ccncc2)c2ccc(OC(=O)c3ccncc3)cc2)cc1` belongs -20% (inactive). As to `CCOC(=O)c1ccc(N2C(=O)CC(N3CCC(O)(c4ccc(Cl)cc4)CC3)C2=O)cc1` (centres undefined), the activity change, negative = inhibition in assay [1] (at 50 µM (top of the series)) was 7.67% (inactive). Same read-out and setting: the value for `CCCOc1ccc2ccccc2c1/C=C1\SC(=O)NC1=O` was -22.2% (inactive); that for `FC(F)(F)c1nc(SCc2ccc(Cl)cc2Cl)n[nH]1` was 8.98% (inactive).

Turning to `COC(=O)COC(=O)c1ccccc1NC(=O)c1ccccc1`, the activity change, negative = inhibition in assay [1] (at 50 µM (top of the series)) was -21% (inactive). With `Oc1c(Br)cc(-c2ccccc2)cc1Br`, in assay [1] (at 50 µM (top of the series)), the activity change, negative = inhibition was -1.67% (inactive). As for `O/N=C/c1cc(Br)ccc1OCc1ccccc1F`, the activity change, negative = inhibition in assay [1] (at 16 µM (top of the series)) is 13.1% (inactive). For `O=C(c1ccc(Cl)cc1)N1CCN(c2ccc(F)cc2)CC1`, the activity change, negative = inhibition in assay [1] (at 50 µM (top of the series)) was -26.4% (inactive). Still for that read-out and setting: to `COc1ccc(N(C(=O)c2ccncc2)S(=O)(=O)c2ccc(F)cc2)cc1` belongs 38.9% (inactive); to `COC(OC)c1ccc(C#N)c(SCc2ccccc2)n1`, -2.94% (inactive); to `CNc1cc(CSC)nc(SCc2ccc(Cl)cc2Cl)n1`, 14.7% (inactive). As to `Nc1nc(-c2ccc(Oc3ccccc3)cc2)cs1`, in assay [1] (at 50 µM (top of the series)), the activity change, negative = inhibition is -0.359% (inactive). Still for that read-out and setting: to `COC(=O)C1=NN(C(=O)c2cccc(Br)c2)C(O)(c2ccc(Cl)cc2)C1` (centres undefined) belongs -78.6% (inactive); to `CC1=NN(C(N)=S)C(=O)C1N=Nc1cccc(Cl)c1C` (centres undefined), -20.7% (inactive); to `Cc1cccc(C)c1N1C(=O)C2ON(c3ccccc3)C(c3ccncc3)C2C1=O` (centres undefined), -3.22% (inactive). For the compound `CCC(Oc1ccc(Br)cc1Cl)C(=O)Nc1nnc(C2CC2)s1` (centres undefined), the activity change, negative = inhibition in assay [1] (at 50 µM (top of the series)) was -18.5% (inactive). For `O/N=C/c1ccccc1OCc1ccc(Cl)cc1`, the activity change, negative = inhibition in assay [1] (at 50 µM (top of the series)) was -27.3% (inactive). Turning to `Cc1ccc(C(=O)C(SC(C)(C)C)n2cncn2)cc1` (centres undefined), in assay [1] (at 50 µM (top of the series)), the activity change, negative = inhibition is -13% (inactive). On to `c1ccc(Cn2cc(-c3cccnc3)cn2)cc1`, for which the activity change, negative = inhibition in assay [1] (at 50 µM (top of the series)) is -24.2% (inactive). As for `CCCSC(=S)c1c(C)[nH]n(-c2ccccc2)c1=O`, the activity change, negative = inhibition in assay [1] (at 50 µM (top of the series)) is -28.2% (inactive).

For `O=C(O)CSc1nc(-c2ccc(Cl)cc2)nc2c1oc1ccccc12`, the activity change, negative = inhibition in assay [1] (at 50 µM (top of the series)) was -31.1% (inactive). For the compound `CCCCCCCCCCOC(=O)Cn1c(COc2ccccc2OC)[n+](C)c2ccccc21`, in assay [2], the AC35 is 0.401 µM. On the same count and under the same terms, the value for `COC(=O)c1cccc2c1-c1ccccc1/C2=N/O` was 34.7 µM; that for `Oc1c(CN2CCCC2)cc(COCc2ccccc2)c2cccnc12` was 13.8 µM; that for `O=c1c2ccccc2c(-c2ccc(O)cc2)nn1-c1cccc(C(F)(F)F)c1` was 5.55 µM.

In the case of `CC(=O)C1=C(c2ccc(Br)cc2)C(=O)c2ccccc2C1=O`, in assay [2], the AC35 is 0.82 µM. On the same count and under the same terms, the value for `O=C(NOC(=O)c1ccccc1)c1ccccc1` was 20.9 µM. For `CCC(NC(=S)NCc1ccc(F)cc1)c1ccc(C(C)C)cc1` (centres undefined), the AC35 in assay [2] was 11.8 µM. Still for that read-out and setting: the value for `CC(C)(C)C(=O)C(Oc1ccc(Cl)cc1)n1cncn1` (centres undefined) was 36.6 µM. On to `O=P(Nc1cccnc1)(Oc1ccccc1Cl)Oc1ccccc1Cl`, for which the AC35 in assay [2] is 40.7 µM. Consider `CCOc1ccc(N/N=C(/C#N)C(N)=O)cc1`, for which the activity change, negative = inhibition in assay [1] (at 50 µM (top of the series)) was -29.8% (inactive). With `CCCCOC(=O)/C=C/c1ccc(OC(=O)OC)c(OC(=O)OC)c1`, the AC35 in assay [2] is 14.7 µM.

With `O=C(N/N=C/c1ccc[nH]1)c1sc2ccccc2c1Cl`, in assay [2], the AC35 was 8.77 µM. On to `C=CCNC(=S)N1CCC(Cc2ccccc2)CC1`, for which the AC35 in assay [2] was 43.5 µM.

Regarding `Cc1cc(NS(=O)(=O)c2ccc(C3CCCCC3)cc2)no1`, in assay [1] (at 50 µM (top of the series)), the activity change, negative = inhibition is 27.3% (inactive). For the compound `COc1cccc(C(C)=C2SC(=S)NC2=O)c1`, the activity change, negative = inhibition in assay [1] (at 50 µM (top of the series)) is -18.5% (inactive). For `O=C(CN1CC[n+]2c(-c3cccs3)csc21)c1ccc(-c2ccccc2)cc1`, the AC35 in assay [2] was 2.39 µM. Still for that read-out and setting: to `C=CCn1c(-c2cc(-c3ccc(C)cc3)nc3ccccc23)n[nH]c1=S` belongs 15.5 µM. Same read-out and setting: to `CN(c1ccccc1)c1nc(N2CCCC2)nc(-n2ccnc2)n1` belongs 9.8 µM; to `COc1cccc(/C=N/Nc2ncnc3scc(-c4ccccc4)c23)c1O`, 1.91 µM.

Regarding `CC(/C=N/n1c(COc2ccccc2)n[nH]c1=S)=C\c1ccccc1`, the AC35 in assay [2] is 37.3 µM.

Take `C[n+]1c2cc(N)ccc2cc2ccc(N)cc21`: the AC35 in assay [2] was 0.0327 µM. The same measure, in the same setting: the value for `c1ccc(-c2ccc(SCc3cccnc3)nn2)nc1` was 33.1 µM; that for `Cc1ccc(NC(=S)c2nc3ccccc3[nH]2)c(C)c1` was 5.34 µM. For `CCCS(=O)(=O)c1c(S(=O)(=O)CCC)c2c(C)cccn2c1C(=O)N/N=C/c1cc(O)cc(O)c1`, the AC35 in assay [2] is 8.14 µM. For `COc1cc2cnc(-c3ccccc3)c(C(=O)c3ccc(F)cc3)c2cc1OC`, the AC35 in assay [2] was 34.4 µM. Consider `COc1ccc(O)c(C(=O)CC(=O)c2ccc(F)cc2)c1`, for which, in assay [2], the AC35 was 16.1 µM. For the compound `C=C(C)COc1ccc(-c2[nH]ncc2-c2ccc(Br)cc2)c(O)c1`, the AC35 in assay [2] is 3.55 µM. Regarding `Cc1cc(/C=C2\SC(=S)N(C)C2=O)c(C)n1-c1ccc(O)cc1`, the AC35 in assay [2] is 10.8 µM.

As for `Cc1cc(C(=O)COC(=O)Cc2n[nH]c(=O)c3ccccc23)c(C)n1-c1cccc(C(F)(F)F)c1`, the AC35 in assay [2] was 6.57 µM. As to `CN1CCN(C(=O)c2cc(COc3ccc(F)cc3Cl)on2)CC1c1ccccc1` (centres undefined), the AC35 in assay [2] is 38.8 µM.

Turning to `CCCCCCn1c(=O)c(C(=O)Nc2ncccc2C)c(O)c2ccccc21`, the AC35 in assay [2] was 2.57 µM. In the case of `O=C(Oc1c(Cl)cc(Cl)c2cccnc12)c1cccs1`, in assay [2], the AC35 was 17.7 µM. Turning to `NC(=Nc1nc(-c2ccccn2)cc2ccccc12)c1ccccn1`, the AC35 in assay [2] was 0.0527 µM. Still for that read-out and setting: the value for `Fc1ccc(CCNC(=S)Nc2ccc(F)c(Cl)c2)cc1` was 15.9 µM. As for `Cc1cc(-c2ccccc2)n(-c2cc(N/N=C/c3ccccc3O)ncn2)n1`, the AC35 in assay [2] was 3.99 µM.

Turning to `CCCCCCC(Cl)(Cn1ccnc1)c1ccccc1` (centres undefined), the AC35 in assay [2] is 4.06 µM. In the case of `COc1cnc(-c2ccccn2)nc1Sc1ccc(C)cc1`, the AC35 in assay [2] was 1.73 µM.

In the case of `COc1ccc(/C=N/Nc2cc(C)nc(-n3nc(C)cc3C)n2)cc1`, the AC35 in assay [2] is 1.06 µM. Same read-out and setting: the value for `O=S(=O)(c1ccc(Cl)cc1)N1CCC2(CC1)OCCN2S(=O)(=O)c1cccs1` was 24.8 µM. The same measure, in the same setting: the value for `COc1cc([N+](=O)[O-])cc(/C=N/NC(=O)c2cncc(Br)c2)c1O` was 11.7 µM. Take `CC(=O)NC(c1cccc([N+](=O)[O-])c1)c1ccc2cccnc2c1O` (centres undefined): the AC35 in assay [2] is 2 µM. With `Cc1c(Cc2ccccc2)c(NCCN(C)C)n2c(nc3ccccc32)c1C#N`, in assay [2], the AC35 is 7.32 µM. The same measure, in the same setting: the value for `CC(C)C(=O)NC(c1cccc([N+](=O)[O-])c1)c1ccc2cccnc2c1O` (centres undefined) was 1.01 µM.
